From patent publication US10954253B2, “1,2-dihydro-3H-pyrazolo[3,4-d]pyrimidin-3-one derivative as Wee1 inhibitor” (SHIJIAZHUANG SAGACITY NEW DRUG DEVELOPMENT CO., LTD., priority 2017, dated 2021)

Target: Wee1 (Homo sapiens (Human), UniProt P30291)
Test: In vitro enzymatic inhibitory activity (33P-ATP filter-binding kinase assay, MBP substrate)
Type: biochemical
Conditions: Wee-1 150 nM, MBP 20 μM
Description: The compounds of the present invention for experimental use were all self-prepared, and their chemical names and structural formulas are shown in the preparation embodiments of the respective compounds. The experimental tests were carried out in Reaction Biology Corporation, USA, and the experimental results were provided by the company. Basic reaction buffer: 20 mM hydroxyethylpiperazine ethanesulfuric acid (pH 7.5), 10 mM magnesium chloride, 1 mM EGTA, 0.02% Brij35, 0.02 mg/mL bovine serum albumin, 0.1 mM Na3VO4, 2 mM DTT, 1% DMSO Enzyme: Wee-1 concentration is 150 nM Matrix: MBP concentration is 20 μM The tested compound was formulated into a 5 mM solution with 100% DMSO, and a 10 points 3-fold gradient dilution was performed with DMSO through an automated pipetting station epMotion 5070. 1. Fresh matrix configuration reaction buffer was prepared; 2. The Wee-1 was added into the matrix solution and shaked gently; 3. DMSO solution of the compound were added into the kinase reaction mixture using an acoustic technique (Echo 550; nanoliter range) and incubated for 20 minutes at room temperature; 4. ^33P-ATP (specific activity, 10 μCi/μL) was added into the reaction mixture to stimulate the reaction; 5. Incubated for 2 hours at room temperature; 6. Kinase activity was detected by filter-binding method.

Wee1, sequence (P30291 whole entry): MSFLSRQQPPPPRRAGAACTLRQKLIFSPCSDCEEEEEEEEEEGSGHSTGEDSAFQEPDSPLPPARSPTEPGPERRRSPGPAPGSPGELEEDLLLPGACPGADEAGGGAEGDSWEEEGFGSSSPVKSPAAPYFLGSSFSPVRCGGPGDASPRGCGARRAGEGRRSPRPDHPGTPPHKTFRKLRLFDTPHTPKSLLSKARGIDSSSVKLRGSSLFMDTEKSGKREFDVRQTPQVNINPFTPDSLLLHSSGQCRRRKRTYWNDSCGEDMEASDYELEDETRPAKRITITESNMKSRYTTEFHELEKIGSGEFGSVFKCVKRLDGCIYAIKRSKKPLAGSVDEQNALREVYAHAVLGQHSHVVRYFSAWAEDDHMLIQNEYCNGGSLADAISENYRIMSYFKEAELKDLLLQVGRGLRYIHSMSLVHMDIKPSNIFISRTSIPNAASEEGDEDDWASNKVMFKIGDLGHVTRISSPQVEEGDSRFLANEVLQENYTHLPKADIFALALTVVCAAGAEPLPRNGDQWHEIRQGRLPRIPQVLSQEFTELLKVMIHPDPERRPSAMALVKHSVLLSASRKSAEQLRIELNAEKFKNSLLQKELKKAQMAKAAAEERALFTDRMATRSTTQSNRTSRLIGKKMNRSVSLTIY

Structure (SMILES) | IC50 [nM]
C=CCn1c(=O)c2cnc(Nc3ccc(N4CCC5(CCN(C)CC5)CC4)cc3)nc2n1-c1cccc(C(F)(F)F)n1 [Embodiment 46, 2-allyl-6-((4-(9-methyl-3,9-diazaspiro[5.5]undecane-3-yl)phenyl)amino)-1-(6-(trifluoromethyl)pyridin-2-yl)-1H-pyrazolo[3,4-d]pyrimidine-3(2H)-one] | 44.6
C=CCn1c(=O)c2cnc(Nc3ccc(N4CCC5(CCN(C)CC5)CC4)cc3)nc2n1-c1cccc(C(C)(O)C(F)F)n1 (stereo not shown) [Compound 78] | 32
C=CCn1c(=O)c2cnc(Nc3ccc(N4CCC5(CCN(C)CC5)CC4)cc3)nc2n1-c1ccc(F)c(C(C)(C)O)n1 [Compound 80, 2-allyl-1-(5-fluoro-6-(2-hydroxypropan-2-yl)pyridin-2-yl)-6-((4-(9-methyl-3,9-diazaspiro[5.5]undecan-3-yl)phenyl)amino)-1H-pyrazolo[3,4-d]pyrimidin-3(2H)-one] | 49
C=CCn1c(=O)c2cnc(Nc3ccc(N4CCC5(CCN(C)CC5)CC4)cc3)nc2n1-c1cccc(N2CCNC2=O)n1 [Embodiment 58, 2-allyl-6-((4(9-methyl-3,9-diazaspiro[5.5]undecan-3-yl)phenyl)amino)-1-(6-(2-oxo-1-imidazolidinyl)pyridin-2-yl)-1H-pyrazolo[3,4-d]pyrimidin-3(2H)-one] | 73
C=CCn1c(=O)c2cnc(Nc3ccc(N4CCC5(CCNCC5)CC4)cc3)nc2n1-c1ccccc1 [Embodiment 2, 6-((4-(3,9-diazaspiro[5.5]undecan-3-yl)phenyl)amino)-2-allyl-1-phenyl-1H-pyrazolo[3,4-d]pyrimidin-3(2H)-one] | 43.6
C=CCn1c(=O)c2cnc(Nc3ccc(N4CCC5(CCN(C)CC5)CC4)cc3)nc2n1-c1ccsc1 [Embodiment 8, 2-allyl-6-((4-(9-methyl-3,9-diazaspiro[5.5]undecan-3-yl)phenyl)amino)-1-(thiophen-3-yl)-1H-pyrazolo[3,4-d]pyrimidin-3(2H)-one] | 51.9
C=CCn1c(=O)c2cnc(Nc3ccc(N4CCC5(CCN(C)CC5)CC4)cc3)nc2n1-c1ccccc1 [Embodiment 1, 2-allyl-6-((4-(9-methyl-3,9-diazaspiro[5.5]undecan-3-yl)phenyl)amino)-1-phenyl-1H-pyrazolo[3,4-d]pyrimidin-3(2H)-one] | 67.4
C=CCn1c(=O)c2cnc(Nc3ccc(N4CCC5(CCN(C)CC5)CC4)cc3)nc2n1-c1cccc(C2(F)CC(F)(F)C2)n1 [Compound 65, 2-allyl-6((4-(9-methyl-3,9-diazaspiro[5.5]undecan-3-yl)phenyl)amino)-1-(6-(1,3,3-trifluorocyclobutyl)pyridin-2-yl)-1H-pyrazolo[3,4-d]pyrimidin-3(2H)-one] | 41.6
CCn1c(=O)c2cnc(Nc3ccc(N4CCC5(CCN(C)CC5)CC4)cc3)nc2n1-c1ccccc1 [Embodiment 19, 2-ethyl-6-((4-(9-methyl-3,9-diazaspiro[5.5]undecan-3-yl)phenyl)amino)-1-phenyl-1H-pyrazolo[3,4-d](2H)-one] | 83.2
C=CCn1c(=O)c2cnc(Nc3ccc(N4CCC5(CCN(C)CC5)CC4)cc3)nc2n1-c1cccc(Cl)c1 [Embodiment 11, 2-allyl-1-(3-chlorophenyl)-6-((4-(9-methyl-3,9-diazaspiro[5.5]undecan-3-yl)phenyl)amino)-1H-pyrazolo[3,4-d]pyrimidin-3(2H)-one] | 48.1
C=CCn1c(=O)c2cnc(Nc3ccc(N4CCC5(CCN(C)CC5)CC4)cc3)nc2n1-c1cccs1 [Embodiment 7, 2-allyl-6-((4-(9-methyl-3,9-diazaspiro[5.5]undecan-3-yl)phenyl)amino)-1-(thiophen-2-yl)-1H-pyrazolo[3,4-d]pyrimidin-3(2H)-one] | 82.5
C=C(F)Cn1c(=O)c2cnc(Nc3ccc(N4CCC5(CCN(C)CC5)CC4)cc3)nc2n1-c1cccc(C(C)(C)O)n1 [Compound 79, 2-(2-fluoroallyl)-1-(6-(2-hydroxypropan-2-yl)pyridin-2-yl)-6-((4-(9-methyl-3,9-diazaspiro[5.5]undecan-3-yl)phenyl)amino)-1H-pyrazolo[3,4-d]pyrimidin-3(2H)-one] | 43
C=CCn1c(=O)c2cnc(Nc3ccc(N4CCC5(CCN(C)CC5)CC4)cc3)nc2n1-c1cccc(OC2CCC2)n1 [Embodiment 54, 2-allyl-1-(6-cyclobutoxypyridin-2-yl)-6-((4-(9-methyl-3,9-diazaspiro[5.5]undecan-3-yl)phenyl)amino)-1H-pyrazolo[3,4-d]pyrimidin-3(2H)-one] | 57

Now those with a lower IC50, led by results:

IC50 [nM] | Structure (SMILES)
14.8 | C=CCn1c(=O)c2cnc(Nc3ccc(N4CCC5(CCN(CCF)CC5)CC4)cc3)nc2n1-c1cccc(C(C)(C)O)n1 [Embodiment 60]
5.3 | C=CCn1c(=O)c2cnc(Nc3ccc(N4CCC5(CCN(C)CC5)CC4)cc3)nc2n1-c1cccc(C2(OC)COC2)n1 [Compound 73, 2-allyl-1-(6-(3-methoxyoxetan-3-yl)pyridin-2-yl)-6-((4-(9-methyl-3,9-diazaspiro[5.5]undecan-3-yl)phenyl)amino)-1H-pyrazolo[3,4-d]pyrimidin-3(2H)-one]
8.2 | C=CCn1c(=O)c2cnc(Nc3ccc(N4CCC5(CCN(C)CC5)CC4)cc3)nc2n1-c1cccc(N2CC(F)(F)C2)n1 [Compound 72]
3 | C=CCn1c(=O)c2cnc(Nc3ccc(N4CCC5(CCN(C)CC5)CC4)cc3)nc2n1-c1cccc(OC)n1 [Embodiment 47, 2-allyl-1-(6-methoxypyridin-2-yl)-6-((4-(9-methyl-3,9-diazaspiro[5.5]undecan-3-yl)phenyl)amino)-1H-pyrazolo[3,4-d]pyrimidin-3(2H)-one]
15.7 | C=CCn1c(=O)c2cnc(Nc3ccc(N4CCC5(CCN(C(=O)OC)CC5)CC4)cc3)nc2n1-c1cccc(C2(O)COC2)n1 [Compound 71, methyl-9-(4-((2-allyl-1-(6-(3-hydroxyoxetan-3-yl)pyridin-2-yl)-3-oxo-2,3-dihydro-1H-pyrazolo[3,4-d]pyrimidin-6-yl)amino)phenyl)-3,9-diazaspiro[5.5]undecan-3-carboxylate]
12.6 | C=CCn1c(=O)c2cnc(Nc3ccc(N4CCC5(CCN(C)CC5)CC4)cc3)nc2n1-c1cccc(N2CCCC2=O)n1 [Embodiment 44]
15 | C=CCn1c(=O)c2cnc(Nc3ccc(N4CCC5(CCN(C)CC5)CC4)cc3)nc2n1-c1cccc(C2(O)CC(F)(F)C2)n1 [Compound 66, 2-allyl-1-(6-(3,3-difluoro-1-hydroxycyclobutyl)pyridin-2-yl)-6-((4-(9-methyl-3,9-diazaspiro[5.5]undecan-3-yl)phenyl)amino)-1H-pyrazolo[3,4-d]pyrimidin-3(2H)-one]
20.7 | C=CCn1c(=O)c2cnc(Nc3ccc(N4CCC5(CCN(C)CC5)CC4)c(OC)c3)nc2n1-c1cccc(C(C)(C)O)n1 [Embodiment 38, 2-allyl-1-(6-(2-hdyroxypropan-2-yl)pyridin-2-yl)-6((3-methoxy-4-(9-methyl-3,9-diazaspiro[5.5]undecan-3-yl)phenyl)amino)-1H-pyrazolo[3,4-d]pyrimidine-3(2H)-one]
24.9 | C=CCn1c(=O)c2cnc(Nc3ccc(N4CCC5(CCN(C)CC5)CC4)cc3)nc2n1-c1cccc(F)n1 [Embodiment 27, 2-allyl-1-(6-fluoropyridin-2-yl)-6-((4-(9-methyl-3,9-diazaspiro[5.5]undecane-3-yl)phenyl)amino)-1H-pyrazolo[3,4-d]pyrimidin-3(2H)-one]
